Patent publication US12077503B2, “Substituted cyclic amides and their use as herbicides” (FMC CORPORATION, priority 2015, dated 2024)

Tests used:
Assay type in all cases: in vivo
Kochia (Kochia scoparia) [1] = assay: Test A preemergence; details: Bassia scoparia, pre-emergence, 240 h, 0 to 100 scale where 0 is no effect and 100 is complete control, read-out: Kochia plant response rating
In short: (§1)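 Visual injury, scored on a 0–100 scale relative to untreated controls, was recorded about 10 d after application. Treatments were a preemergence soil spray over planted seeds or a postemergence spray on plants at the one- to two-leaf stage, 2 to 10 cm tall, all in loam soil–sand blend in the greenhouse.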

[2] = tested on: barnyardgrass (Echinochloa crus-galli); assay: Test A preemergence; details: Echinochloa crus-galli, pre-emergence, 240 h, 0 to 100 scale where 0 is no effect and 100 is complete control, read-out: Barnyardgrass plant response rating
In short: as §1

[3] = tested on: giant foxtail (Setaria faberii); assay: Test A preemergence; details: Setaria faberi, pre-emergence, 240 h, 0 to 100 scale where 0 is no effect and 100 is complete control, read-out: Foxtail, Giant plant response rating
In short: as §1

[4] = tested on: pigweed (Amaranthus retroflexus); assay: Test A preemergence; details: Amaranthus retroflexus, pre-emergence, 240 h, 0 to 100 scale where 0 is no effect and 100 is complete control, read-out: Pigweed plant response rating
[5] = tested on: ragweed (common ragweed, Ambrosia elatior); assay: Test A preemergence; details: Ambrosia artemisiifolia, pre-emergence, 240 h, 0 to 100 scale where 0 is no effect and 100 is complete control, read-out: Ragweed plant response rating
In short: as §1

[6] = tested on: ryegrass, Italian (Italian ryegrass, Lolium multiflorum); assay: Test A preemergence; details: Lolium multiflorum, pre-emergence, 240 h, 0 to 100 scale where 0 is no effect and 100 is complete control, read-out: Ryegrass, Italian plant response rating
In short: as §1

[7] = tested on: Galium (catchweed bedstraw, Galium aparine); assay: Test A postemergence; details: Galium, post-emergence, 240 h
In short: as §1

Kochia (Kochia scoparia) [8] = assay: Test A postemergence; details: Bassia scoparia, post-emergence, 240 h
In short: as §1

[9] = tested on: barnyardgrass (Echinochloa crus-galli); assay: Test A postemergence; details: Echinochloa crus-galli, post-emergence, 240 h
In short: as §1

[10] = tested on: blackgrass (Alopecurus myosuroides); assay: Test A postemergence; details: Alopecurus myosuroides, post-emergence, 240 h
In short: as §1

corn (Zea mays) = assay: Test A postemergence; details: Zea mays, post-emergence, 240 h
In short: as §1

[11] = tested on: giant foxtail (Setaria faberii); assay: Test A postemergence; details: Setaria faberi, post-emergence, 240 h
In short: as §1

[12] = tested on: pigweed (Amaranthus retroflexus); assay: Test A postemergence; details: Amaranthus retroflexus, post-emergence, 240 h
In short: as §1

[13] = tested on: ragweed (common ragweed, Ambrosia elatior); assay: Test A postemergence; details: Ambrosia artemisiifolia, post-emergence, 240 h
In short: as §1

[14] = tested on: ryegrass, Italian (Italian ryegrass, Lolium multiflorum); assay: Test A postemergence; details: Lolium multiflorum, post-emergence, 240 h
In short: as §1

[15] = tested on: wheat (Triticum aestivum); assay: Test A postemergence; details: Triticum aestivum, post-emergence, 240 h
In short: as §1

[16] = tested on: barnyardgrass (Echinochloa crus-galli); assay: Test B flooded paddy test; details: Echinochloa crus-galli, 250 g ai/ha, Flood; 0 to 100 scale where 0 is no effect and 100 is complete control; read-out: Barnyardgrass plant response rating
In short: (§2)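 Rating scale 0–100 (visual, vs untreated controls) after a 13–15 d greenhouse period; application to the flood layer, 3 cm above soil and maintained; plants at 2-leaf stage when treated.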

[17] = tested on: ducksalad (Heteranthera limosa); assay: Test B flooded paddy test; details: Heteranthera limosa, 250 g ai/ha, Flood; 0 to 100 scale where 0 is no effect and 100 is complete control; read-out: Ducksalad plant response rating
In short: as §2

rice (Oryra sativa) = assay: Test B flooded paddy test; details: Oryza sativa, 250 g ai/ha, Flood; 0 to 100 scale where 0 is no effect and 100 is complete control; read-out: Rice plant response rating
In short: as §2

[18] = tested on: sedge, umbrella (small-flower umbrella sedge, Cyperus difformis); assay: Test B flooded paddy test; details: Cyperus difformis, 250 g ai/ha, Flood; 0 to 100 scale where 0 is no effect and 100 is complete control; read-out: Sedge, Umbrella plant response rating
In short: as §2

[19] = 125 g ai/ha, preemergence, approx. 10 d

## CN1C[C@H](c2csc3c2CCCC3)[C@@H](C(=O)Nc2ccc(F)c(F)c2F)C1=O [Compound 1079]
Kochia (Kochia scoparia) [1]; 31 g ai/ha, Preemergence
  pest or weed control at 31 g/ha: 0%
Kochia (Kochia scoparia) [1]; [19]
  pest or weed control at 125 g/ha: 0%
[2]; 31 g ai/ha, Preemergence
  pest or weed control at 31 g/ha: 0%
[2]; [19]
  pest or weed control at 125 g/ha: 80%
[3]; 31 g ai/ha, Preemergence
  pest or weed control at 31 g/ha: 20%
[3]; [19]
  pest or weed control at 125 g/ha: 100%
[4]; 31 g ai/ha, Preemergence
  pest or weed control at 31 g/ha: 0%
[4]; [19]
  pest or weed control at 125 g/ha: 0%
[5]; 31 g ai/ha, Preemergence
  pest or weed control at 31 g/ha: 0%
[5]; [19]
  pest or weed control at 125 g/ha: 0%
[6]; 31 g ai/ha, Preemergence
  pest or weed control at 31 g/ha: 0%
[6]; [19]
  pest or weed control at 125 g/ha: 0%
[7]; 125 g ai/ha, postemergence, visual injury on 0 to 100 scale (0 no effect, 100 complete control), approx. 10 d, read-out: Galium plant response rating
  pest or weed control at 125 g/ha: 0%
[7]; Postemergence, 31 g ai/ha, visual injury after approx. 10 d, 0 to 100 scale, 0 no effect, 100 complete control, read-out: Plant response rating, Galium
  pest or weed control at 31 g/ha: 0%
Kochia (Kochia scoparia) [8]; 125 g ai/ha, postemergence, visual injury on 0 to 100 scale (0 no effect, 100 complete control), approx. 10 d, read-out: Kochia plant response rating
  pest or weed control at 125 g/ha: 20%
Kochia (Kochia scoparia) [8]; Postemergence, 31 g ai/ha, visual injury after approx. 10 d, 0 to 100 scale, 0 no effect, 100 complete control, read-out: Plant response rating, Kochia
  pest or weed control at 31 g/ha: 0%
[9]; 125 g ai/ha, postemergence, visual injury on 0 to 100 scale (0 no effect, 100 complete control), approx. 10 d, read-out: Barnyardgrass plant response rating
  pest or weed control at 125 g/ha: 90%
[9]; Postemergence, 31 g ai/ha, visual injury after approx. 10 d, 0 to 100 scale, 0 no effect, 100 complete control, read-out: Plant response rating, Barnyardgrass
  pest or weed control at 31 g/ha: 20%
[10]; 125 g ai/ha, postemergence, visual injury on 0 to 100 scale (0 no effect, 100 complete control), approx. 10 d, read-out: Blackgrass plant response rating
  pest or weed control at 125 g/ha: 0%
[10]; Postemergence, 31 g ai/ha, visual injury after approx. 10 d, 0 to 100 scale, 0 no effect, 100 complete control, read-out: Plant response rating, Blackgrass
  pest or weed control at 31 g/ha: 0%
Corn (Zea mays); 125 g ai/ha, postemergence, visual injury on 0 to 100 scale (0 no effect, 100 complete control), approx. 10 d, read-out: Corn plant response rating
  plant injury at 125 g/ha: 0%
Corn (Zea mays); Postemergence, 31 g ai/ha, visual injury after approx. 10 d, 0 to 100 scale, 0 no effect, 100 complete control
  Corn plant response rating (crop injury, 0 = no effect, 100 = complete kill) at 31 g/ha: 0%
[11]; 125 g ai/ha, postemergence, visual injury on 0 to 100 scale (0 no effect, 100 complete control), approx. 10 d, read-out: Foxtail, Giant plant response rating
  pest or weed control at 125 g/ha: 20%
[11]; Postemergence, 31 g ai/ha, visual injury after approx. 10 d, 0 to 100 scale, 0 no effect, 100 complete control, read-out: Plant response rating, Foxtail, Giant
  pest or weed control at 31 g/ha: 0%
[12]; 125 g ai/ha, postemergence, visual injury on 0 to 100 scale (0 no effect, 100 complete control), approx. 10 d, read-out: Pigweed plant response rating
  pest or weed control at 125 g/ha: 0%
[12]; Postemergence, 31 g ai/ha, visual injury after approx. 10 d, 0 to 100 scale, 0 no effect, 100 complete control, read-out: Plant response rating, Pigweed
  pest or weed control at 31 g/ha: 0%
[13]; 125 g ai/ha, postemergence, visual injury on 0 to 100 scale (0 no effect, 100 complete control), approx. 10 d, read-out: Ragweed plant response rating
  pest or weed control at 125 g/ha: 0%
[13]; Postemergence, 31 g ai/ha, visual injury after approx. 10 d, 0 to 100 scale, 0 no effect, 100 complete control, read-out: Plant response rating, Ragweed
  pest or weed control at 31 g/ha: 0%
[14]; 125 g ai/ha, postemergence, visual injury on 0 to 100 scale (0 no effect, 100 complete control), approx. 10 d, read-out: Ryegrass, Italian plant response rating
  pest or weed control at 125 g/ha: 0%
[14]; Postemergence, 31 g ai/ha, visual injury after approx. 10 d, 0 to 100 scale, 0 no effect, 100 complete control, read-out: Plant response rating, Ryegrass, Italian
  pest or weed control at 31 g/ha: 0%
[15]; 125 g ai/ha, postemergence, visual injury on 0 to 100 scale (0 no effect, 100 complete control), approx. 10 d, read-out: Wheat plant response rating
  plant injury at 125 g/ha: 30%
[15]; Postemergence, 31 g ai/ha, visual injury after approx. 10 d, 0 to 100 scale, 0 no effect, 100 complete control, read-out: Plant response rating, Wheat
  plant injury at 31 g/ha: 0%
[16]
  pest or weed control at 250 g/ha: 60%
[17]
  pest or weed control at 250 g/ha: 30%
Rice (Oryra sativa)
  pest or weed control at 250 g/ha: 20%
[18]
  pest or weed control at 250 g/ha: 0%
